Source: patent US10233195B2, “Anti-fibrotic pyridinones” (InterMune, Inc., priority 2014, dated 2019)

Columns and labels:
[1] = system: Fibroblasts (primary human lung and dermal, HFL-1, 3T3 etc); assay: Cell proliferation assay (BrdU incorporation); type: cell-based; conditions: HFL1, stimulant (LPA, TGFb, serum etc), 50% inhibition of the increase of BrdU incorporation
In short: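 Serum-starved (24-48 h) fibroblasts pretreated with compound 0-30 min, then stimulated (LPA, TGFb, serum etc) for 16-24 h before BrdU, labelled a further 8 h. BrdU incorporation read by ELISA at 450 nm; IC50 taken as 50% inhibition of the stimulant-induced increase over unstimulated wells.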

[2] = system: TGF-b induced Endothelin-1 production; assay: ET-1 assay: inhibitory effect on TGF-b induced endothelin-1 production; type: cell-based; conditions: Homo sapiens, Fibroblast; fibroblasts, stimulant (TGFb, serum, LPA etc), ET-1 in media by ELISA, 4-parameter fit
In short: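 Fibroblasts (primary human lung/dermal, HFL-1, 3T3) serum-starved 0-48 h, preincubated ~30 min with compound, then stimulated (TGFb, serum or LPA) for 16-48 h. Secreted ET-1 measured by ELISA; EC50 from 4-parameter logistic fit, with CC50 from ATPlite in the same wells.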

CCn1c(=O)oc2ccc(-c3c[nH]c(=O)cc3C)cc21 [Compound 562]
IC50 [1]: < 50 µM
EC50 [2]: < 50 µM

Cc1cc(=O)[nH]cc1-c1ccc2c(c1)OCC(=O)N2C [Compound 563]
IC50 [1]: < 50 µM
EC50 [2]: < 50 µM

Cc1cc(=O)[nH]cc1-c1cccc2c1OC(F)(F)O2 [Compound 565]
IC50 [1]: < 50 µM
EC50 [2]: < 50 µM

Cc1nc2c(=O)n(-c3ccc(OC(F)(F)F)cc3)cc(-c3cnn(C)c3)c2o1 [Compound 569]
IC50 [1]: < 50 µM
EC50 [2]: < 50 µM

Cc1nc2c(=O)n(-c3ccc(OC(F)(F)F)cc3)ccc2o1 [Compound 570]
IC50 [1]: > 200 µM
EC50 [2]: > 200 µM

CCOc1ccc(-n2cc(-c3cn[nH]c3)c3nccnc3c2=O)c(C)c1 [Compound 574]
IC50 [1]: < 50 µM
EC50 [2]: < 50 µM

O=c1c2nccnc2ccn1-c1ccc(OC(F)(F)F)cc1 [Compound 575]
IC50 [1]: < 50 µM
EC50 [2]: < 50 µM

Cn1cc(-c2cn(-c3ccc(OC(F)(F)F)cc3)c(=O)c3scnc23)cn1 [Compound 583]
IC50 [1]: < 50 µM
EC50 [2]: < 50 µM

Cn1cc(-c2cn(-c3ccc(OC(F)(F)F)cc3)c(=O)c3[nH]ncc23)cn1 [Compound 588]
IC50 [1]: < 50 µM
EC50 [2]: > 200 µM

O=c1c2[nH]ccc2c(-c2ccc(F)cc2)cn1-c1ccc(OC(F)(F)F)cc1 [Compound 591]
IC50 [1]: > 200 µM
EC50 [2]: < 50 µM

CCn1ccc2c(-c3ccc(F)cc3)cn(-c3ccc(OC(F)(F)F)cc3)c(=O)c21 [Compound 594]
IC50 [1]: < 50 µM
EC50 [2]: < 50 µM

CCn1ccc2c(-c3ccc(F)cc3)c[nH]c(=O)c21 [Compound 595]
IC50 [1]: 50 to 200 µM
EC50 [2]: < 50 µM

Cn1ccc2c(-c3cn[nH]c3)cn(-c3ccc(C#N)cc3)c(=O)c21 [Compound 600]
IC50 [1]: > 200 µM
EC50 [2]: < 50 µM

CCOc1ccc(-n2cc(-c3cn[nH]c3)c3ccn(C)c3c2=O)c(C)c1 [Compound 601]
IC50 [1]: < 50 µM
EC50 [2]: < 50 µM

Cn1ccc2c(-c3cn[nH]c3)cn(-c3ccc(OC(F)(F)F)cc3)c(=O)c21 [Compound 602]
IC50 [1]: < 50 µM
EC50 [2]: < 50 µM

Cn1cc(-c2cn(-c3ccc(OC(F)(F)F)cc3)c(=O)c3[nH]ccc23)cn1 [Compound 603]
IC50 [1]: < 50 µM
EC50 [2]: < 50 µM

O=c1c2[nH]ccc2c(-c2cn[nH]c2)cn1-c1ccc(OC(F)(F)F)cc1 [Compound 604]
IC50 [1]: < 50 µM
EC50 [2]: < 50 µM

Cn1cc(-c2cn(-c3ccc(Cl)cc3)c(=O)c3[nH]ccc23)cn1 [Compound 605]
IC50 [1]: < 50 µM
EC50 [2]: < 50 µM

O=c1c2[nH]ccc2c(-c2cn[nH]c2)cn1-c1ccc(Cl)cc1 [Compound 606]
IC50 [1]: < 50 µM
EC50 [2]: < 50 µM

CCOc1ccc(-n2cc(-c3cn[nH]c3)c3cc[nH]c3c2=O)c(C)c1 [Compound 607]
IC50 [1]: < 50 µM
EC50 [2]: < 50 µM

O=c1c2[nH]ccc2ccn1-c1ccc(OC(F)(F)F)cc1 [Compound 609]
IC50 [1]: < 50 µM
EC50 [2]: < 50 µM

CCn1ccc2ccn(-c3ccc(OC(F)(F)F)cc3)c(=O)c21 [Compound 610]
IC50 [1]: < 50 µM
EC50 [2]: < 50 µM

CCn1ccc2c(-c3cnn(CCO)c3)cn(-c3ccc(OC(F)(F)F)cc3)c(=O)c21 [Compound 615]
IC50 [1]: < 50 µM
EC50 [2]: < 50 µM

CCn1cnc2c(-c3cnn(C)c3)cn(-c3ccc(OC(F)(F)F)cc3)c(=O)c21 [Compound 617]
IC50 [1]: 50 to 200 µM
EC50 [2]: < 50 µM

CCn1cnc2c(-c3cnn(C)c3)c[nH]c(=O)c21 [Compound 618]
IC50 [1]: 50 to 200 µM
EC50 [2]: 50 to 200 µM

CCn1nc2c(-c3cnn(C)c3)cn(-c3ccc(OC(F)(F)F)cc3)c(=O)c2n1 [Compound 619]
IC50 [1]: < 50 µM
EC50 [2]: < 50 µM

CCn1nc2c(-c3cn[nH]c3)cn(-c3ccc(OC(F)(F)F)cc3)c(=O)c2n1 [Compound 620]
IC50 [1]: < 50 µM
EC50 [2]: < 50 µM

CCn1nnc2c(=O)n(-c3ccc(OC(F)(F)F)cc3)cc(-c3cnn(C)c3)c21 [Compound 624]
IC50 [1]: < 50 µM
EC50 [2]: < 50 µM

CCn1nnc2c(-c3cnn(C)c3)cn(-c3ccc(OC(F)(F)F)cc3)c(=O)c21 [Compound 625]
IC50 [1]: < 50 µM
EC50 [2]: < 50 µM

CCn1ccc2c(=O)n(-c3ccc(OC(F)(F)F)cc3)cc(-c3ccc(F)cc3)c21 [Compound 626]
IC50 [1]: < 50 µM
EC50 [2]: < 50 µM

CCOc1ccc(-n2cc(-c3ccnnc3)c(C)cc2=O)c(C)c1 [Compound 629]
IC50 [1]: > 200 µM
EC50 [2]: < 50 µM

Cn1cc(-c2cn(-c3ccc(OC(F)(F)F)cc3)c(=O)c3[nH]nnc23)cn1 [Compound 631]
IC50 [1]: > 200 µM
EC50 [2]: < 50 µM

CCn1cnc2c(=O)n(-c3ccc(OC(F)(F)F)cc3)cc(-c3cnn(C)c3)c21 [Compound 636]
IC50 [1]: > 200 µM
EC50 [2]: > 200 µM

CC(C)n1ccc2c(-c3cnn(C)c3)cn(-c3ccc(OC(F)(F)F)cc3)c(=O)c21 [Compound 647]
IC50 [1]: < 50 µM
EC50 [2]: < 50 µM

CC(C)n1ccc2c(-c3cn[nH]c3)cn(-c3ccc(OC(F)(F)F)cc3)c(=O)c21 [Compound 648]
IC50 [1]: < 50 µM
EC50 [2]: < 50 µM

Cn1cc(-c2cn(-c3ccc(OC(F)(F)F)cc3)c(=O)c3c2ccn3C2CC2)cn1 [Compound 649]
IC50 [1]: 50 to 200 µM
EC50 [2]: < 50 µM

O=c1c2c(ccn2C2CC2)c(-c2cn[nH]c2)cn1-c1ccc(OC(F)(F)F)cc1 [Compound 650]
IC50 [1]: < 50 µM
EC50 [2]: < 50 µM

COCCn1ccc2c(-c3cnn(C)c3)cn(-c3ccc(OC(F)(F)F)cc3)c(=O)c21 [Compound 651]
IC50 [1]: < 50 µM
EC50 [2]: < 50 µM

CCn1cc2c(-c3cnn(C)c3)cn(-c3ccc(OC(F)(F)F)cc3)c(=O)c2n1 [Compound 657]
IC50 [1]: < 50 µM
EC50 [2]: < 50 µM

Cn1cc(-c2cn(-c3ccc(OC(F)(F)F)cc3)c(=O)c3c2ncn3C)cn1 [Compound 665]
IC50 [1]: 50 to 200 µM
EC50 [2]: < 50 µM

O=c1c2[nH]nnc2c(-c2ccc(F)cc2)cn1-c1ccc(OC(F)(F)F)cc1 [Compound 681]
IC50 [1]: < 50 µM
EC50 [2]: 50 to 200 µM

CCn1nnc2c(=O)n(-c3ccc(OC(F)(F)F)cc3)cc(-c3ccc(F)cc3)c21 [Compound 682]
IC50 [1]: < 50 µM
EC50 [2]: < 50 µM

CCn1nnc2c(-c3ccc(F)cc3)cn(-c3ccc(OC(F)(F)F)cc3)c(=O)c21 [Compound 683]
IC50 [1]: < 50 µM
EC50 [2]: < 50 µM

Cn1cc(-c2cn(-c3ccc(OC(F)(F)F)cc3)c(=O)c3c2nnn3CCF)cn1 [Compound 684]
IC50 [1]: < 50 µM
EC50 [2]: 50 to 200 µM

CCOc1ccc(-n2cc(-c3ccnnc3)c3nn(CC)nc3c2=O)c(C)c1 [Compound 685]
IC50 [1]: < 50 µM
EC50 [2]: < 50 µM

CCOc1ccc(-n2cc(-c3cnn(C)c3)c3nn(CC)nc3c2=O)c(C)c1 [Compound 686]
IC50 [1]: < 50 µM
EC50 [2]: 50 to 200 µM

Cn1cc(-c2cn(-c3ccc(OC(F)(F)F)cc3)c(=O)c3nnn(CCF)c23)cn1 [Compound 687]
IC50 [1]: < 50 µM
EC50 [2]: < 50 µM

CCn1nc2c(-c3cnn(C)c3)cn(-c3ccc(OCCOC)cc3)c(=O)c2n1 [Compound 688]
IC50 [1]: 50 to 200 µM
EC50 [2]: 50 to 200 µM

O=c1c2[nH]ncc2c(-c2ccc(F)cc2)cn1-c1ccc(OC(F)(F)F)cc1 [Compound 689]
IC50 [1]: < 50 µM
EC50 [2]: < 50 µM

Cc1nc2c(-c3cnn(C)c3)cn(-c3ccc(OC(F)(F)F)cc3)c(=O)c2s1 [compound 584]
IC50 [1]: < 50 µM
EC50 [2]: < 50 µM
